Data from patent publication EP0540676B1, “PEPTIDE COMPOUNDS HAVING GROWTH HORMONE RELEASING ACTIVITY” (POLYGEN HOLDING CORPORATION, priority 1990, dated 1994).
“And” between values parts separate entries of the source, which are not always exact repeats. Identical values can stand only once. Where a SMILES comes first, the peptide text is derived from it. [ ]: non-standard residue; d: D form.

System: GH Release
Experiment: In vivo GH release in pentobarbital anesthetized rats (serum GH by RIA)
Details: for GH Released: Table 5, anesthetized rats; for GH Released / GH Released by Compound in Column A: mean ± SEM, six rats; for GH Released Serum GH ng/ml ± SEM (N=6): Table 6, pentobarbital anesthetized rats (table title); for GH Released Serum GH ng/ml ± SEM (N=6) / GH Released by Compound in Column A: sacrificed 10 minutes after final injection; for activity compared with peptides having another residue in the A₂ position: in words, summary of Tables 3, 4, 5 and 6, rats; for GH Released by Compound in Column A: Table 4, pentobarbital anesthetized rats
Description: Immature female Sprague-Dawley rats were obtained from the Charles River Laboratories (Wilmington, MA). After arrival they were housed at 25 °C with a 14:10 hour light:dark cycle. Water and Purina rat chow were available ad libitum. Pups were kept with their mothers until 21 days of age.
Twenty-six day old rats, six rats per treatment group, were anesthetized interperitoneally with 50 mg/Kg of pentobarbital 20 minutes prior to i.v. treatment with peptide. Normal saline with 0.1% gelatin was the vehicle for intravenous (i.v.) injections of the peptides. The anesthetized rats, weighing 55-65 grams, were injected i.v. with the quantity of growth hormone releasing compounds indicated in Tables 3, 4 and 5. Injection was made as a 0.2 mL solution into the jugular vein.
All animals were sacrificed by guillotine 10 minutes after the final test injection (see Tables 3 and 4). Trunk blood for the determination of blood GH levels was collected following decapitation. After allowing the blood to clot, it was centrifuged and the serum was separated from the clot. Serum was kept fozen until the day of sampling for radioimmunasay (RIA) determination of growth hormone levels according to the following procedure, as developed by the National Institute of Arthritis, Diabetes and Digestive and Kidney Diseases (NIADDK).
Reagents are generally added to the RIA analysis tubes at a single sitting, at refrigerator temperature (about 4 °C) in the following sequence: • (a) buffer, • (b) "cold" (i.e., non-radioactive) standard or unknown serum sample to be analyzed, • (c) radio-iodinated growth hormone antigen, and • (d) growth hormone antiserum. Reagent addition is generally carried out so that there is achieved a final RIA tube dilution of about 1:30,000 (antiserum to total liquid volume; vol:vol).
The mixed reagents are then typically incubated at room temperature (about 25 °C) for about 24 hours prior to addition of a second antibody (e.g., goat or rabbit anti-monkey gamma globulin serum) which binds to and causes precipitation of the complexed growth hormone anti serum. Precipitated contents of the RIA tubes are then analyzed for the number of counts in a specified period of time in a gamma scintillation counter. A standard curve is prepared by plotting number of radioactive counts versus growth hormone (GH) level. GH levels of unknowns are then determined by reference to the standard curve.
Serum GH was measured by RIA with reagents provided by the National Hormone and Pituitary Program.
Serum levels in Tables 3, 4, 5 and 6 are recorded in ng/mL in terms of the rat GH standard of 0.61 International Units/mg (IU/mg). Data is recorded as the mean +/- standard error of the mean (SEM). Statistical analysis was performed with Student's t-test. NS means the difference was not statistically significant. In Tables 3, 4, 5 and 6 the results shown are the average of studies with six rats.

[1] = Total Dose 0.3 µg, several experiments with different controls
[2] = Total Dose 1.0 µg, several experiments with different controls

C[C@H](NC(=O)[C@@H](CC(=O)O)NC(=O)[C@@H](N)Cc1c[nH]cn1)C(=O)N[C@@H](Cc1c[nH]c2ccccc12)C(=O)N[C@H](Cc1ccccc1)C(=O)N[C@@H](CCCCN)C(N)=O [His-DAsp-Ala-Trp-DPhe-Lys-NH₂] (HELM PEPTIDE1{H.[dD].A.W.[dF].K.[am]}$$$$V2.0)
GH Released (Total Dose 1.0 µg i.v.): 154 ± 63 ng/mL | GH Released (Total Dose 3.0 µg i.v.): 155 ± 34 ng/mL | GH Released (Total Dose 10.0 µg i.v.): 163 ± 44 ng/mL | GH Released (Total Dose 30.0 µg i.v.): 224 ± 62 ng/mL | GH Released (Total Dose 100.0 µg i.v.): 178 ± 83 ng/mL

C[C@H](N)C(=O)N[C@@H](Cc1c[nH]cn1)C(=O)N[C@H](Cc1ccc2ccccc2c1)C(=O)N[C@@H](C)C(=O)N[C@@H](Cc1c[nH]c2ccccc12)C(=O)N[C@H](Cc1ccccc1)C(=O)N[C@@H](CCCCN)C(N)=O [Ala-His-DβNal-Ala-Trp-DPhe-Lys-NH₂, Ala-His-D^βNal-Ala-Trp-DPhe-Lys-NH₂] (HELM PEPTIDE1{A.H.[O=C([C@@H](Cc1ccc2ccccc2c1)N[*:1])[*:2]].A.W.[dF].K.[am]}$$$$V2.0)
GH Released Serum GH ng/ml ± SEM (N=6) (Total Dose 0.1 µg, several experiments with different controls): 822 ± 243 ng/mL and 610 ± 90 ng/mL | GH Released Serum GH ng/ml ± SEM (N=6) [1]: 1418 ± 302 ng/mL and 1746 ± 318 ng/mL and 1549 ± 292 ng/mL and 1140 ± 187 ng/mL | GH Released Serum GH ng/ml ± SEM (N=6) [2]: 2201 ± 269 ng/mL and 2610 ± 176 ng/mL and 2180 ± 284 ng/mL and 2909 ± 257 ng/mL | GH Released Serum GH ng/ml ± SEM (N=6) (Total Dose 3.0 µg): 3686 ± 436 ng/mL | activity compared with peptides having another residue in the A₂ position: more active than the equivalent DTrp compound

C[C@H](N)C(=O)N[C@@H](Cc1c[nH]cn1)C(=O)N[C@H](Cc1c[nH]cn1)C(=O)N[C@@H](C)C(=O)N[C@@H](Cc1c[nH]c2ccccc12)C(=O)N[C@H](Cc1ccccc1)C(=O)N[C@@H](CCCCN)C(N)=O [AlaHisDHisAlaTrpDPheLysNH₂] (HELM PEPTIDE1{A.H.[dH].A.W.[dF].K.[am]}$$$$V2.0)
GH Released by Compound in Column A (Total Dose .3 µg i.v.): 268 ± 54 ng/mL

C[C@H](NC(=O)[C@@H](Cc1ccccc1)NC(=O)[C@H](Cc1c[nH]c2ccccc12)NC(=O)[C@H](C)NC(=O)[C@@H](Cc1c[nH]c2ccccc12)NC(=O)[C@@H](N)Cc1c[nH]cn1)C(=O)N[C@@H](CCCCN)C(N)=O [His-DTrp-Ala-Trp-DPhe-Ala-Lys-NH₂] (HELM PEPTIDE1{H.[dW].A.W.[dF].A.K.[am]}$$$$V2.0)
GH Released (Total Dose 1.0 µg i.v.): 1965 ± 366 ng/mL | GH Released (Total Dose 3.0 µg i.v.): 4553 ± 670 ng/mL | GH Released (Total Dose .1 µg i.v.): 420 ± 105 ng/mL | GH Released (Total Dose .3 µg i.v.): 900 ± 163 ng/mL

C[C@H](N)C(=O)N[C@@H](Cc1c[nH]cn1)C(=O)N[C@H](Cc1c[nH]c2ccccc12)C(=O)N[C@@H](C)C(=O)N[C@@H](Cc1c[nH]c2ccccc12)C(=O)N[C@H](Cc1ccccc1)C(=O)N[C@@H](CCCCN)C(N)=O [AlaHisDTrpAlaTrpDPheLysNH₂] (HELM PEPTIDE1{A.H.[dW].A.W.[dF].K.[am]}$$$$V2.0)
GH Released by Compound in Column A (Total Dose .3 µg i.v.): 901 ± 21 ng/mL

C[C@H](NC(=O)[C@@H](N)Cc1c[nH]cn1)C(=O)N[C@H](Cc1c[nH]c2ccccc12)C(=O)N[C@@H](C)C(=O)N[C@@H](Cc1c[nH]c2ccccc12)C(=O)N[C@H](Cc1ccccc1)C(=O)N[C@@H](CCCCN)C(N)=O [His-Ala-DTrp-Ala-Trp-DPhe-Lys-NH₂] (HELM PEPTIDE1{H.A.[dW].A.W.[dF].K.[am]}$$$$V2.0)
GH Released (Total Dose 1.0 µg i.v.): 830 ± 103 ng/mL | GH Released (Total Dose 3.0 µg i.v.): 2588 ± 341 ng/mL | GH Released (Total Dose .3 µg i.v.): 261 ± 32 ng/mL

C[C@H](NC(=O)[C@@H](Cc1cccc2ccccc12)NC(=O)[C@@H](N)Cc1c[nH]cn1)C(=O)N[C@@H](Cc1c[nH]c2ccccc12)C(=O)N[C@H](Cc1ccccc1)C(=O)N[C@@H](CCCCN)C(N)=O [His-D^αNal-Ala-Trp-DPhe-Lys-NH₂] (HELM PEPTIDE1{H.[O=C([C@@H](Cc1cccc2ccccc12)N[*:1])[*:2]].A.W.[dF].K.[am]}$$$$V2.0)
GH Released (Total Dose 1.0 µg i.v.): 1130 ± 179 ng/mL | GH Released (Total Dose 3.0 µg i.v.): 2319 ± 139 ng/mL | GH Released (Total Dose .1 µg i.v.): 280 ± 70 ng/mL | GH Released (Total Dose .3 µg i.v.): 439 ± 122 ng/mL

C[C@H](N)C(=O)N[C@H](Cc1ccc2ccccc2c1)C(=O)N[C@@H](C)C(=O)N[C@@H](Cc1c[nH]c2ccccc12)C(=O)N[C@H](Cc1ccccc1)C(=O)N[C@@H](CCCCN)C(N)=O [Ala-DβNal-Ala-Trp-DPhe-Lys-NH₂] (HELM PEPTIDE1{A.[O=C([C@@H](Cc1ccc2ccccc2c1)N[*:1])[*:2]].A.W.[dF].K.[am]}$$$$V2.0)
GH Released Serum GH ng/ml ± SEM (N=6) [1]: 363 ± 73 ng/mL | GH Released Serum GH ng/ml ± SEM (N=6) [2]: 1450 ± 294 ng/mL | GH Released Serum GH ng/ml ± SEM (N=6) (Total Dose 3.0 µg): 2072 ± 208 ng/mL | GH Released Serum GH ng/ml ± SEM (N=6) (Total Dose 10.0 µg): 2698 ± 369 ng/mL

C[C@H](NC(=O)[C@@H](Cc1ccccc1)NC(=O)[C@H](Cc1c[nH]c2ccccc12)NC(=O)[C@H](C)NC(=O)[C@@H](Cc1ccc2ccccc2c1)NC(=O)[C@@H](N)Cc1c[nH]cn1)C(=O)N[C@@H](CCCCN)C(N)=O [His-D^βNal-Ala-Trp-DPhe-Ala-Lys-NH₂] (HELM PEPTIDE1{H.[O=C([C@@H](Cc1ccc2ccccc2c1)N[*:1])[*:2]].A.W.[dF].A.K.[am]}$$$$V2.0)
GH Released (Total Dose 1.0 µg i.v.): 1593 ± 359 ng/mL | GH Released (Total Dose 3.0 µg i.v.): 3337 ± 583 ng/mL | GH Released (Total Dose .1 µg i.v.): 484 ± 89 ng/mL | GH Released (Total Dose .3 µg i.v.): 971 ± 241 ng/mL

C[C@H](N)C(=O)N[C@@H](Cc1c[nH]cn1)C(=O)N[C@H](Cc1ccccc1)C(=O)N[C@@H](C)C(=O)N[C@@H](Cc1c[nH]c2ccccc12)C(=O)N[C@H](Cc1ccccc1)C(=O)N[C@@H](CCCCN)C(N)=O [AlaHisDPheAlaTrpDPheLysNH₂] (HELM PEPTIDE1{A.H.[dF].A.W.[dF].K.[am]}$$$$V2.0)
GH Released by Compound in Column A (Total Dose .3 µg i.v.): 616 ± 74 ng/mL

C[C@H](N)C(=O)N[C@@H](Cc1c[nH]cn1)C(=O)N1CCC[C@@H]1C(=O)N[C@@H](C)C(=O)N[C@@H](Cc1c[nH]c2ccccc12)C(=O)N[C@H](Cc1ccccc1)C(=O)N[C@@H](CCCCN)C(N)=O [AlaHisDProAlaTrpDPheLysNH₂] (HELM PEPTIDE1{A.H.[dP].A.W.[dF].K.[am]}$$$$V2.0)
GH Released by Compound in Column A (Total Dose .3 µg i.v.): 262 ± 51 ng/mL

CSC[C@@H](NC(=O)[C@@H](N)Cc1c[nH]cn1)C(=O)N[C@@H](C)C(=O)N[C@@H](Cc1c[nH]c2ccccc12)C(=O)N[C@H](Cc1ccccc1)C(=O)N[C@@H](CCCCN)C(N)=O [His-DCys(SMe)-Ala-Trp-DPhe-Lys-NH₂] (H-H[dC](Me)AW[dF]K-NH2)
GH Released (Total Dose 1.0 µg i.v.): 193 ± 28 ng/mL | GH Released (Total Dose 3.0 µg i.v.): 180 ± 34 ng/mL | GH Released (Total Dose .3 µg i.v.): 178 ± 28 ng/mL

C[C@H](NC(=O)[C@@H](Cc1ccc2ccccc2c1)NC(=O)[C@@H](N)Cc1c[nH]cn1)C(=O)N[C@@H](Cc1c[nH]c2ccccc12)C(=O)N[C@H](Cc1ccccc1)C(=O)N[C@@H](CCCCN)C(N)=O [His-D^βNal-Ala-Trp-DPhe-Lys-NH₂] (HELM PEPTIDE1{H.[O=C([C@@H](Cc1ccc2ccccc2c1)N[*:1])[*:2]].A.W.[dF].K.[am]}$$$$V2.0)
activity compared with peptides having another residue in the A₂ position: more active than compounds having DTrp, D^αNal, DAsp, and DCys (SMe) in the A₂ position

C[C@H](NC(=O)[C@@H](Cc1c[nH]c2ccccc12)NC(=O)[C@@H](N)Cc1c[nH]cn1)C(=O)N[C@@H](Cc1c[nH]c2ccccc12)C(=O)N[C@H](Cc1ccccc1)C(=O)N[C@@H](CCCCN)C(N)=O [His-DTrp-Ala-Trp-DPhe-Lys-NH₂] (HELM PEPTIDE1{H.[dW].A.W.[dF].K.[am]}$$$$V2.0)
GH Released (Total Dose 1.0 µg i.v.): 1531 ± 303 ng/mL | GH Released (Total Dose 3.0 µg i.v.): 2349 ± 267 ng/mL | GH Released (Total Dose .1 µg i.v.): 512 ± 43 ng/mL | GH Released (Total Dose .3 µg i.v.): 566 ± 114 ng/mL
